Data from PubChem BioAssay AID2060606 (Molecular Pharmacology Branch, DTP, NCI, 2025).
Where “and” joins values, the source holds several entries; their conditions need not be identical. Equal values may be shown once.

System: 922993-354-T-J3-PDC complex spheroids, viability, % test/control
Test: Anticancer human tumor 922993-354-T-J3-PDC patient-derived endometrial carcinoma cell line growth inhibition [CLK]
Conditions: for viability, T/C: stronger effect = lower value; active = viability on the fitted dose curve at most 10% of control; inactive = the rest
How it was run: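 Multi-cell-type spheroids combined patient-derived tumor cells with HUVEC endothelial cells and human mesenchymal stem cells. Paired agents were dosed in half-log steps down from about clinical Cmax, or from 10 microM where Cmax was unknown.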

[1] = curve of first compound, second compound 0.0316 µM
[2] = curve of first compound, second compound 0.1 µM
[3] = curve of first compound, second compound 0.316 µM
[4] = curve of first compound, second compound 1 µM
[5] = curve of first compound, second compound 3.16 µM
[6] = curve of first compound, second compound 10 µM
[7] = second compound 0.0316 µM, first compound 0.0316 µM
[8] = second compound 0.0316 µM, first compound 0.1 µM
[9] = second compound 0.0316 µM, first compound 0.316 µM
[10] = second compound 0.0316 µM, first compound 1 µM
[11] = second compound 0.0316 µM, first compound 3.16 µM
[12] = second compound 0.0316 µM, first compound 10 µM
[13] = second compound 0.1 µM, first compound 0.0316 µM
[14] = second compound 0.1 µM, first compound 0.1 µM
[15] = second compound 0.1 µM, first compound 0.316 µM
[16] = second compound 0.1 µM, first compound 1 µM
[17] = second compound 0.1 µM, first compound 3.16 µM
[18] = second compound 0.1 µM, first compound 10 µM
[19] = second compound 0.316 µM, first compound 0.0316 µM
[20] = second compound 0.316 µM, first compound 0.1 µM
[21] = second compound 0.316 µM, first compound 0.316 µM
[22] = second compound 0.316 µM, first compound 1 µM
[23] = second compound 0.316 µM, first compound 3.16 µM
[24] = second compound 0.316 µM, first compound 10 µM
[25] = second compound 1 µM, first compound 0.0316 µM
[26] = second compound 1 µM, first compound 0.1 µM
[27] = second compound 1 µM, first compound 0.316 µM
[28] = second compound 1 µM, first compound 1 µM
[29] = second compound 1 µM, first compound 3.16 µM
[30] = second compound 1 µM, first compound 10 µM
[31] = second compound 3.16 µM, first compound 0.0316 µM
[32] = second compound 3.16 µM, first compound 0.1 µM
[33] = second compound 3.16 µM, first compound 0.316 µM
[34] = second compound 3.16 µM, first compound 1 µM
[35] = second compound 3.16 µM, first compound 3.16 µM
[36] = second compound 3.16 µM, first compound 10 µM
[37] = second compound 10 µM, first compound 0.0316 µM
[38] = second compound 10 µM, first compound 0.1 µM
[39] = second compound 10 µM, first compound 0.316 µM
[40] = second compound 10 µM, first compound 1 µM
[41] = second compound 10 µM, first compound 3.16 µM
[42] = second compound 10 µM, first compound 10 µM
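Note: spheroids exposed to the agents for 7 days before readout.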

C#Cc1c(F)ccc2cc(O)cc(-c3ncc4c(N5CC6CCC(C5)N6)nc(OCC56CCCN5CC(F)C6)nc4c3F)c12 (centres undefined) + CNC(=O)c1ccc(Nc2nc(OC3CCCC3)c3c(-c4ccc5nc(C)oc5c4)c[nH]c3n2)c(OC)c1
inactive: viability, T/C [7] 115% | viability, T/C [8] 98.5% | viability, T/C [9] 103% | viability, T/C [10] 101% | viability, T/C [11] 115% | viability, T/C [12] 94.1% | viability, T/C [13] 94.9% | viability, T/C [14] 95.2% | viability, T/C [15] 116% | viability, T/C [16] 107% | viability, T/C [17] 109% | viability, T/C [18] 97.5% | viability, T/C [19] 61.4% | viability, T/C [20] 64.5% | viability, T/C [21] 63% | viability, T/C [22] 61.8% | viability, T/C [23] 57.1% | viability, T/C [24] 45.6% | viability, T/C [25] 39.5% | viability, T/C [26] 40.6% | viability, T/C [27] 35.5% | viability, T/C [28] 37% | viability, T/C [29] 40.8% | viability, T/C [30] 35.8% | viability, T/C [31] 29.7% | viability, T/C [32] 29.4% | viability, T/C [33] 29.8% | viability, T/C [34] 30.4% | viability, T/C [35] 34.3% | viability, T/C [36] 36.2% | viability, T/C [37] 30.9% | viability, T/C [38] 29.4% | viability, T/C [39] 30.5% | viability, T/C [40] 33.2% | viability, T/C [41] 33.1% | viability, T/C [42] 31.5%
> 10000 nM: IC50 [1] | IC50 [2] | IC50 [3]
< 31.6 nM: IC50 [4] | IC50 [5] | IC50 [6]

C#Cc1c(F)ccc2cc(O)cc(-c3ncc4c(N5CC6CCC(C5)N6)nc(OCC56CCCN5CC(F)C6)nc4c3F)c12 (centres undefined)
inactive: viability, T/C (compound 0.0316 µM) 99.4% and 98.9% | viability, T/C (compound 0.1 µM) 82% and 83% | viability, T/C (compound 0.316 µM) 95.2% and 109% | viability, T/C (compound 1 µM) 93% and 94% | viability, T/C (compound 3.16 µM) 98.1% and 104% | viability, T/C (compound 10 µM) 95.9% and 101%
> 10000 nM: IC50 (curve of compound)

C#Cc1c(F)ccc2cc(O)cc(-c3ncc4c(N5CC6CCC(C5)N6)nc(OCC56CCCN5CC(F)C6)nc4c3F)c12 (centres undefined) + CN1CCN(c2cc(C(=O)Nc3cc4cc(-c5cnn(C)c5)ccc4cn3)ccn2)CC1
56.8 nM: IC50 [3]
active: viability, T/C [25] 0.17% | viability, T/C [26] 0.42% | viability, T/C [27] 1.47% | viability, T/C [28] 0.44% | viability, T/C [29] 0.92% | viability, T/C [30] 0.14% | viability, T/C [31] 0.14% | viability, T/C [32] 0.2% | viability, T/C [33] 0.11% | viability, T/C [34] 0.11% | viability, T/C [35] 2.16% | viability, T/C [36] 2.87% | viability, T/C [37] 0.88% | viability, T/C [38] 0.85% | viability, T/C [39] 1.6% | viability, T/C [40] 0.15% | viability, T/C [41] 2.52% | viability, T/C [42] 3.71%
< 31.6 nM: IC50 [4] | IC50 [5] | IC50 [6]
inactive: viability, T/C [7] 123% | viability, T/C [8] 113% | viability, T/C [9] 122% | viability, T/C [10] 107% | viability, T/C [11] 111% | viability, T/C [12] 93.3% | viability, T/C [13] 99.5% | viability, T/C [14] 105% | viability, T/C [15] 91.9% | viability, T/C [16] 92.4% | viability, T/C [17] 103% | viability, T/C [18] 88% | viability, T/C [19] 57% | viability, T/C [20] 47.9% | viability, T/C [21] 38.6% | viability, T/C [22] 42.1% | viability, T/C [23] 41.4% | viability, T/C [24] 41.3%
> 10000 nM: IC50 [1] | IC50 [2]

CC(Nc1ccc2c(c1)OCCn1cc(N3C(=O)OCC3C(F)F)nc1-2)C(N)=O (centres undefined) + CN1CCN(c2cc(C(=O)Nc3cc4cc(-c5cnn(C)c5)ccc4cn3)ccn2)CC1
59.6 nM: IC50 [3]
inactive: viability, T/C [7] 110% | viability, T/C [8] 105% | viability, T/C [9] 84.8% | viability, T/C [10] 67.8% | viability, T/C [11] 48.7% | viability, T/C [12] 25.6% | viability, T/C [13] 109% | viability, T/C [14] 97.6% | viability, T/C [15] 91% | viability, T/C [16] 50.3% | viability, T/C [17] 34.7% | viability, T/C [18] 27.2% | viability, T/C [19] 49.6% | viability, T/C [20] 55% | viability, T/C [21] 28.7% | viability, T/C [22] 23.4% | viability, T/C [23] 16.8% | viability, T/C [24] 6.83%
< 31.6 nM: IC50 [4] | IC50 [5] | IC50 [6]
active: viability, T/C [25] 0.15% | viability, T/C [26] 0.13% | viability, T/C [27] 1.42% | viability, T/C [28] 0.08% | viability, T/C [29] 0.07% | viability, T/C [30] 1.09% | viability, T/C [31] 0.09% | viability, T/C [32] 0.57% | viability, T/C [33] 0.75% | viability, T/C [34] 0.83% | viability, T/C [35] 1.91% | viability, T/C [36] 1.61% | viability, T/C [37] 0.09% | viability, T/C [38] 0.13% | viability, T/C [39] 1.44% | viability, T/C [40] 0.18% | viability, T/C [41] 1.19% | viability, T/C [42] 1.25%
2730 nM: IC50 [1]
1120 nM: IC50 [2]

C=C(F)C(=O)N1CCN(c2nc(OCC3CCCN3C)nc3c2CCN(c2cccc4cccc(Cl)c24)C3)CC1CC#N (centres undefined) + CNC(=O)c1ccc(Nc2nc(OC3CCCC3)c3c(-c4ccc5nc(C)oc5c4)c[nH]c3n2)c(OC)c1
inactive: viability, T/C [7] 109% | viability, T/C [8] 99.7% | viability, T/C [9] 97.5% | viability, T/C [10] 105% | viability, T/C [11] 94.8% | viability, T/C [13] 89.8% | viability, T/C [14] 104% | viability, T/C [15] 90.7% | viability, T/C [16] 91.9% | viability, T/C [17] 103% | viability, T/C [19] 61.1% | viability, T/C [20] 50.1% | viability, T/C [21] 58.1% | viability, T/C [22] 44% | viability, T/C [23] 57.4% | viability, T/C [25] 36.6% | viability, T/C [26] 36.2% | viability, T/C [27] 32.7% | viability, T/C [28] 38.5% | viability, T/C [29] 47% | viability, T/C [31] 28.3% | viability, T/C [32] 32% | viability, T/C [33] 29.9% | viability, T/C [34] 31.3% | viability, T/C [35] 36.6% | viability, T/C [36] 4.89% | viability, T/C [37] 29% | viability, T/C [38] 33.1% | viability, T/C [39] 30.9% | viability, T/C [40] 29.8% | viability, T/C [41] 38% | viability, T/C [42] 5.43%
< 31.6 nM: IC50 [4] | IC50 [5] | IC50 [6]
active: viability, T/C [12] 6.03% | viability, T/C [18] 4.38% | viability, T/C [24] 3.61% | viability, T/C [30] 0.95%
5630 nM: IC50 [2]
5650 nM: IC50 [1]
3480 nM: IC50 [3]

COC1C=CCC(C)C(C)S(=O)(=O)NC(=O)c2ccc3c(c2)N(CC2CCC21)CC1(CCCc2cc(Cl)ccc21)CO3 (centres undefined)
inactive: viability, T/C (compound 0.0316 µM) 99.2% and 106% | viability, T/C (compound 0.1 µM) 99.9% and 97.5% | viability, T/C (compound 0.316 µM) 103% and 106% | viability, T/C (compound 1 µM) 84.5% and 89.9% | viability, T/C (compound 3.16 µM) 68.4% and 84% | viability, T/C (compound 10 µM) 13.7% and 21.5%
4570 nM and 5820 nM: IC50 (curve of compound)

CCN1CCN(Cc2ccc(Nc3ncc(F)c(-c4cc(F)c5nc(C)n(C(C)C)c5c4)n3)nc2)CC1
> 1000 nM: IC50 (curve of compound)
inactive: viability, T/C (compound 0.00316 µM) 94.4% and 96.9% | viability, T/C (compound 0.01 µM) 91.2% and 85.8% | viability, T/C (compound 0.0316 µM) 94.2% and 84.1% | viability, T/C (compound 0.1 µM) 99.8% and 93.6% | viability, T/C (compound 0.316 µM) 72% and 73.3% | viability, T/C (compound 1 µM) 59.6% and 50.1%
